Reference: PubChem BioAssay AID1963837 (Molecular Pharmacology Branch, DTP, NCI, 2024)

Test system: 843126-344-R-J1-PDC complex spheroid viability
Assay: Anticancer human tumor 843126-344-R-J1-PDC patient-derived melanoma cell line growth inhibition [POLQ]
Details: second compound 0.1 µM; first compound 0.316 µM; active compounds read low
How it was run: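 Complex spheroid viability model combining PDC tumour cells with endothelial (HUVEC) and MSC stromal cells. Novobiocin, ART-558 or RP6685 were tested singly and in combination with standard and investigational anticancer drugs. Each was titrated in half-log steps from near clinical Cmax, or from 10 microM where Cmax was unknown.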
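Also: spheroids exposed to drugs for seven days before readout.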

| Compound | viability, T/C [%] |
| --- | --- |
| C#Cc1c(F)ccc2cc(O)cc(-c3ncc4c(N5CC6CCC(C5)N6)nc(OCC56CCCN5CC(F)C6)nc4c3F)c12 (configuration not stated) + Cc1cccc(N(C)C(=O)C2C(O)CCN2c2nc(C)cc(C(F)(F)F)c2C#N)c1 | 92.9 |

Same assay, conditions: second compound 0.1 µM; first compound 1 µM; active compounds read low

| Compound | viability, T/C [%] |
| --- | --- |
| CCc1c2c(nc3ccc(O)cc13)-c1cc3c(c(=O)n1C2)COC(=O)[C@]3(O)CC + Nc1ccc(C#CCN(C(=O)Cc2ncc(C(F)(F)F)cc2C(F)(F)F)c2ccc(F)cc2)nn1 | 47.9 |
| CCc1c2c(nc3ccc(O)cc13)-c1cc3c(c(=O)n1C2)COC(=O)[C@]3(O)CC + Cc1cccc(N(C)C(=O)C2C(O)CCN2c2nc(C)cc(C(F)(F)F)c2C#N)c1 | 42.8 |
| CCCS(=O)(=O)Nc1ccc(F)c(C(=O)c2c[nH]c3ncc(-c4ccc(Cl)cc4)cc23)c1F + COC1C(OC(N)=O)C(O)C(Oc2ccc3c(O)c(NC(=O)c4ccc(O)c(CC=C(C)C)c4)c(=O)oc3c2C)OC1(C)C | 64.5 |
| COc1cc2cc(C(=O)CCC(=O)O)sc2cc1OC + Cc1cccc(N(C)C(=O)C2C(O)CCN2c2nc(C)cc(C(F)(F)F)c2C#N)c1 | 83.7 |
| C=CCn1c(=O)c2cnc(Nc3ccc(N4CCN(C)CC4)cc3)nc2n1-c1cccc(C(C)(C)O)n1 + Nc1ccc(C#CCN(C(=O)Cc2ncc(C(F)(F)F)cc2C(F)(F)F)c2ccc(F)cc2)nn1 | 77.6 |
| Nc1ccn(C2OC(CO)C(O)C2(F)F)c(=O)n1 (configuration not stated) + Cc1cccc(N(C)C(=O)C2C(O)CCN2c2nc(C)cc(C(F)(F)F)c2C#N)c1 | 51.4 |
| C#Cc1c(F)ccc2cc(O)cc(-c3ncc4c(N5CC6CCC(C5)N6)nc(OCC56CCCN5CC(F)C6)nc4c3F)c12 (configuration not stated) + Cc1cccc(N(C)C(=O)C2C(O)CCN2c2nc(C)cc(C(F)(F)F)c2C#N)c1 | 76 |

Same assay, conditions: second compound 0.1 µM; first compound 3.16 µM; active compounds read low

| Compound | viability, T/C [%] |
| --- | --- |
| CCCS(=O)(=O)Nc1ccc(F)c(C(=O)c2c[nH]c3ncc(-c4ccc(Cl)cc4)cc23)c1F + COC1C(OC(N)=O)C(O)C(Oc2ccc3c(O)c(NC(=O)c4ccc(O)c(CC=C(C)C)c4)c(=O)oc3c2C)OC1(C)C | 72.5 |
| COc1cc2cc(C(=O)CCC(=O)O)sc2cc1OC + Cc1cccc(N(C)C(=O)C2C(O)CCN2c2nc(C)cc(C(F)(F)F)c2C#N)c1 | 94.4 |
| Nc1ccn(C2OC(CO)C(O)C2(F)F)c(=O)n1 (configuration not stated) + Cc1cccc(N(C)C(=O)C2C(O)CCN2c2nc(C)cc(C(F)(F)F)c2C#N)c1 | 44.5 |
| C#Cc1c(F)ccc2cc(O)cc(-c3ncc4c(N5CC6CCC(C5)N6)nc(OCC56CCCN5CC(F)C6)nc4c3F)c12 (configuration not stated) + Cc1cccc(N(C)C(=O)C2C(O)CCN2c2nc(C)cc(C(F)(F)F)c2C#N)c1 | 118 |

Same assay, conditions: second compound 0.1 µM; first compound 10 µM; active compounds read low

| Compound | viability, T/C [%] |
| --- | --- |
| CCCS(=O)(=O)Nc1ccc(F)c(C(=O)c2c[nH]c3ncc(-c4ccc(Cl)cc4)cc23)c1F + COC1C(OC(N)=O)C(O)C(Oc2ccc3c(O)c(NC(=O)c4ccc(O)c(CC=C(C)C)c4)c(=O)oc3c2C)OC1(C)C | 72.5 |
| COc1cc2cc(C(=O)CCC(=O)O)sc2cc1OC + Cc1cccc(N(C)C(=O)C2C(O)CCN2c2nc(C)cc(C(F)(F)F)c2C#N)c1 | 85.2 |
| Nc1ccn(C2OC(CO)C(O)C2(F)F)c(=O)n1 (configuration not stated) + Cc1cccc(N(C)C(=O)C2C(O)CCN2c2nc(C)cc(C(F)(F)F)c2C#N)c1 | 32.9 |
| C#Cc1c(F)ccc2cc(O)cc(-c3ncc4c(N5CC6CCC(C5)N6)nc(OCC56CCCN5CC(F)C6)nc4c3F)c12 (configuration not stated) + Cc1cccc(N(C)C(=O)C2C(O)CCN2c2nc(C)cc(C(F)(F)F)c2C#N)c1 | 79.6 |

Same assay, conditions: second compound 0.316 µM; first compound 0.00316 µM; active compounds read low

| Compound | viability, T/C [%] |
| --- | --- |
| CCc1c2c(nc3ccc(O)cc13)-c1cc3c(c(=O)n1C2)COC(=O)[C@]3(O)CC + Nc1ccc(C#CCN(C(=O)Cc2ncc(C(F)(F)F)cc2C(F)(F)F)c2ccc(F)cc2)nn1 | 69.5 |
| CCc1c2c(nc3ccc(O)cc13)-c1cc3c(c(=O)n1C2)COC(=O)[C@]3(O)CC + Cc1cccc(N(C)C(=O)C2C(O)CCN2c2nc(C)cc(C(F)(F)F)c2C#N)c1 | 70.5 |
| C=CCn1c(=O)c2cnc(Nc3ccc(N4CCN(C)CC4)cc3)nc2n1-c1cccc(C(C)(C)O)n1 + Nc1ccc(C#CCN(C(=O)Cc2ncc(C(F)(F)F)cc2C(F)(F)F)c2ccc(F)cc2)nn1 | 95.1 |

Same assay, conditions: second compound 0.316 µM; first compound 0.01 µM; active compounds read low

| Compound | viability, T/C [%] |
| --- | --- |
| CCc1c2c(nc3ccc(O)cc13)-c1cc3c(c(=O)n1C2)COC(=O)[C@]3(O)CC + Nc1ccc(C#CCN(C(=O)Cc2ncc(C(F)(F)F)cc2C(F)(F)F)c2ccc(F)cc2)nn1 | 56.3 |
| CCc1c2c(nc3ccc(O)cc13)-c1cc3c(c(=O)n1C2)COC(=O)[C@]3(O)CC + Cc1cccc(N(C)C(=O)C2C(O)CCN2c2nc(C)cc(C(F)(F)F)c2C#N)c1 | 61.6 |
| C=CCn1c(=O)c2cnc(Nc3ccc(N4CCN(C)CC4)cc3)nc2n1-c1cccc(C(C)(C)O)n1 + Nc1ccc(C#CCN(C(=O)Cc2ncc(C(F)(F)F)cc2C(F)(F)F)c2ccc(F)cc2)nn1 | 90.7 |

Same assay, conditions: second compound 0.316 µM; first compound 0.0316 µM; active compounds read low

| Compound | viability, T/C [%] |
| --- | --- |
| CCc1c2c(nc3ccc(O)cc13)-c1cc3c(c(=O)n1C2)COC(=O)[C@]3(O)CC + Nc1ccc(C#CCN(C(=O)Cc2ncc(C(F)(F)F)cc2C(F)(F)F)c2ccc(F)cc2)nn1 | 61.3 |
| CCc1c2c(nc3ccc(O)cc13)-c1cc3c(c(=O)n1C2)COC(=O)[C@]3(O)CC + Cc1cccc(N(C)C(=O)C2C(O)CCN2c2nc(C)cc(C(F)(F)F)c2C#N)c1 | 58.3 |
| CCCS(=O)(=O)Nc1ccc(F)c(C(=O)c2c[nH]c3ncc(-c4ccc(Cl)cc4)cc23)c1F + COC1C(OC(N)=O)C(O)C(Oc2ccc3c(O)c(NC(=O)c4ccc(O)c(CC=C(C)C)c4)c(=O)oc3c2C)OC1(C)C | 78.5 |
| COc1cc2cc(C(=O)CCC(=O)O)sc2cc1OC + Cc1cccc(N(C)C(=O)C2C(O)CCN2c2nc(C)cc(C(F)(F)F)c2C#N)c1 | 97.2 |
| C=CCn1c(=O)c2cnc(Nc3ccc(N4CCN(C)CC4)cc3)nc2n1-c1cccc(C(C)(C)O)n1 + Nc1ccc(C#CCN(C(=O)Cc2ncc(C(F)(F)F)cc2C(F)(F)F)c2ccc(F)cc2)nn1 | 98.8 |
| Nc1ccn(C2OC(CO)C(O)C2(F)F)c(=O)n1 (configuration not stated) + Cc1cccc(N(C)C(=O)C2C(O)CCN2c2nc(C)cc(C(F)(F)F)c2C#N)c1 | 42.3 |
| C#Cc1c(F)ccc2cc(O)cc(-c3ncc4c(N5CC6CCC(C5)N6)nc(OCC56CCCN5CC(F)C6)nc4c3F)c12 (configuration not stated) + Cc1cccc(N(C)C(=O)C2C(O)CCN2c2nc(C)cc(C(F)(F)F)c2C#N)c1 | 96.1 |

Same assay, conditions: second compound 0.316 µM; first compound 0.1 µM; active compounds read low

| Compound | viability, T/C [%] |
| --- | --- |
| CCc1c2c(nc3ccc(O)cc13)-c1cc3c(c(=O)n1C2)COC(=O)[C@]3(O)CC + Nc1ccc(C#CCN(C(=O)Cc2ncc(C(F)(F)F)cc2C(F)(F)F)c2ccc(F)cc2)nn1 | 57.2 |
| CCc1c2c(nc3ccc(O)cc13)-c1cc3c(c(=O)n1C2)COC(=O)[C@]3(O)CC + Cc1cccc(N(C)C(=O)C2C(O)CCN2c2nc(C)cc(C(F)(F)F)c2C#N)c1 | 58.6 |
| CCCS(=O)(=O)Nc1ccc(F)c(C(=O)c2c[nH]c3ncc(-c4ccc(Cl)cc4)cc23)c1F + COC1C(OC(N)=O)C(O)C(Oc2ccc3c(O)c(NC(=O)c4ccc(O)c(CC=C(C)C)c4)c(=O)oc3c2C)OC1(C)C | 97.1 |
| COc1cc2cc(C(=O)CCC(=O)O)sc2cc1OC + Cc1cccc(N(C)C(=O)C2C(O)CCN2c2nc(C)cc(C(F)(F)F)c2C#N)c1 | 92.4 |
| C=CCn1c(=O)c2cnc(Nc3ccc(N4CCN(C)CC4)cc3)nc2n1-c1cccc(C(C)(C)O)n1 + Nc1ccc(C#CCN(C(=O)Cc2ncc(C(F)(F)F)cc2C(F)(F)F)c2ccc(F)cc2)nn1 | 105 |
| Nc1ccn(C2OC(CO)C(O)C2(F)F)c(=O)n1 (configuration not stated) + Cc1cccc(N(C)C(=O)C2C(O)CCN2c2nc(C)cc(C(F)(F)F)c2C#N)c1 | 45.2 |
| C#Cc1c(F)ccc2cc(O)cc(-c3ncc4c(N5CC6CCC(C5)N6)nc(OCC56CCCN5CC(F)C6)nc4c3F)c12 (configuration not stated) + Cc1cccc(N(C)C(=O)C2C(O)CCN2c2nc(C)cc(C(F)(F)F)c2C#N)c1 | 105 |

Same assay, conditions: second compound 0.316 µM; first compound 0.316 µM; active compounds read low

| Compound | viability, T/C [%] |
| --- | --- |
| CCc1c2c(nc3ccc(O)cc13)-c1cc3c(c(=O)n1C2)COC(=O)[C@]3(O)CC + Nc1ccc(C#CCN(C(=O)Cc2ncc(C(F)(F)F)cc2C(F)(F)F)c2ccc(F)cc2)nn1 | 63.3 |
